The target in the assay is Voltage-dependent L-type calcium channel subunit alpha-1C (Rattus norvegicus, UniProt P22002). As to the kind of experiment: Inhibition of [3H](+)-PN200-110 binding to L-type calcium channel 1,4-DHP binding site of rat ventricular myocytes. The format is cell-based, Ventricular myocyte.

Molecules are shown by their SMILES.

The term Ki denotes a dissociation constant, usually derived from enzyme kinetics or from competition with a known ligand.

Sequence of Voltage-dependent L-type calcium channel subunit alpha-1C (P22002 whole entry): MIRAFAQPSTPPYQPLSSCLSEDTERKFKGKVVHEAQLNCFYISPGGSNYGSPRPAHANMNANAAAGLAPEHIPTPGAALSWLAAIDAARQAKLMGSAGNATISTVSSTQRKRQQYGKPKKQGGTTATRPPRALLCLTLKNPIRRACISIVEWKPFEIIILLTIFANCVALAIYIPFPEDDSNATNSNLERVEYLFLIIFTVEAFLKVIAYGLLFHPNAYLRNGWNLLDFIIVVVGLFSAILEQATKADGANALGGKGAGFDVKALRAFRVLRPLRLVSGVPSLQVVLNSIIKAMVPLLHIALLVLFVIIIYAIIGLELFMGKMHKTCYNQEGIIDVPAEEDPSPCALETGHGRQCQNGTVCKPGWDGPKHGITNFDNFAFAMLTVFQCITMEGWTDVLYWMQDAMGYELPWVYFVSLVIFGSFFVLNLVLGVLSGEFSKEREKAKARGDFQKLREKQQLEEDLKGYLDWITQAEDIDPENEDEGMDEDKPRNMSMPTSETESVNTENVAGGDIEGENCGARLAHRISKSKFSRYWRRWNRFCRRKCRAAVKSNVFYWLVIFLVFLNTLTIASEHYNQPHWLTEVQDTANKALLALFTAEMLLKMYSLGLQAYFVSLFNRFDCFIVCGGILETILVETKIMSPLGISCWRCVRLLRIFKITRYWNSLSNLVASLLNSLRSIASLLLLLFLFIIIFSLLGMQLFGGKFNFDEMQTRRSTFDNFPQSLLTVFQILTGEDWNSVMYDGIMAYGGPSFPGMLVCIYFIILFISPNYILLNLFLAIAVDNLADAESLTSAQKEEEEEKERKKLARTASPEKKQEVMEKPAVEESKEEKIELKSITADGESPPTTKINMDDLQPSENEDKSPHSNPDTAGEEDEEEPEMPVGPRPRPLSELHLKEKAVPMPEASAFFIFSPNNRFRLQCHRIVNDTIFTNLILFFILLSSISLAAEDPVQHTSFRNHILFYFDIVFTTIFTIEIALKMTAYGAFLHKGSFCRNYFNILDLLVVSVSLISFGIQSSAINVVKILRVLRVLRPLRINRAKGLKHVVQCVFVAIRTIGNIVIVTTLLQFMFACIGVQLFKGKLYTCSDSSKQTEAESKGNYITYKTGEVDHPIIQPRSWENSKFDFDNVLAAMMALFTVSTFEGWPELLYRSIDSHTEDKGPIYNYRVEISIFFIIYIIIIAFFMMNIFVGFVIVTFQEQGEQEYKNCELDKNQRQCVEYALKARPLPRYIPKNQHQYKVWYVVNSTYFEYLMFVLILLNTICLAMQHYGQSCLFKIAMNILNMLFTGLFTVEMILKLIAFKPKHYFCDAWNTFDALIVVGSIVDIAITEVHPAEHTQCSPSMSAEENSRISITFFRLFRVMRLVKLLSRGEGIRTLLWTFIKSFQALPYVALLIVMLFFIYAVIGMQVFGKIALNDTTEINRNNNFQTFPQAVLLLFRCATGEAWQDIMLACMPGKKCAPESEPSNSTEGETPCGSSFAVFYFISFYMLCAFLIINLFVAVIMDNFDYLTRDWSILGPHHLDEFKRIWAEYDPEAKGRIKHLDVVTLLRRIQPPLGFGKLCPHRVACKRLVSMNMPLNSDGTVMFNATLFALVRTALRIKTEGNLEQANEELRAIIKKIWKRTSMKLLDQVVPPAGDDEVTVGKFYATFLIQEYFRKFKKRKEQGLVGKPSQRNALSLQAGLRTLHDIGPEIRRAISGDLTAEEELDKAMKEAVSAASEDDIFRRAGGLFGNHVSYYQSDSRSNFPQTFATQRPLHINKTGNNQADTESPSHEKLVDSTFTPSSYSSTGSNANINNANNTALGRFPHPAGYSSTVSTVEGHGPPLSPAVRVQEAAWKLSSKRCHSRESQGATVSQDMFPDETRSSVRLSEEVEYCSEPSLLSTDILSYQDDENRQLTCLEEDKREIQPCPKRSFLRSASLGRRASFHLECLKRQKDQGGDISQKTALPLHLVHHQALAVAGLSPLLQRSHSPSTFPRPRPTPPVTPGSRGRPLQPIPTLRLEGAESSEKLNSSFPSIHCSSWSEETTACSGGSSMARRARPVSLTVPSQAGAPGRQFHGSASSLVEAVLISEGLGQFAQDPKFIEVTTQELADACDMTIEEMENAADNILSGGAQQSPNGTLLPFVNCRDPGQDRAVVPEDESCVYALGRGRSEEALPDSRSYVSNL

On to `CCCCCCCCCCCCCCOC(=O)C1=C(C)NC(C)=C(C(=O)OC)C1c1ccccc1C(F)(F)F` (configuration not stated), for which the inhibition constant (Ki) is 15.7 nM.

As for `COC(=O)C1=C(C)NC(C)=C(C(=O)OCC[N+](C)(C)C)C1c1ccccc1C(F)(F)F` (configuration not stated), the inhibitory constant (Ki) is 33.2 nM.

(Values after ChEMBL document CHEMBL1126913, “A homologous series of permanently charged 1,4-dihydropyridines: novel probes designed to localize drug binding sites on ion channels” (J Med Chem, 1993).)
